What all share (assay type): cell-based
Test [1] has as its system Streptococcus pneumoniae 1016. Briefly: MIC, microtiter broth dilution (NCCLS M100-S14), S. pneumoniae 1016 (susceptible). The settings on record: Streptococcus pneumoniae 1016. Put shortly:
(§1)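 Panel strains, including macrolide-resistant isolates and their susceptible parents where available, are exposed to serial compound dilutions in microtiter trays. Growth inhibition is scored as MIC under NCCLS M100-S14 standards.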

The subject of test [2] is Streptococcus pyogenes 1079. Briefly: MIC, microtiter broth dilution (NCCLS M100-S14), S. pyogenes 1079 (ermB). Particulars: Streptococcus pyogenes 1079. The procedure, abridged:
as §1
(In general: Broth dilution looks for growth in wells or tubes with falling amounts of substance.)

The test system of test [3] is Haemophilus influenzae 1218. In words: MIC, microtiter broth dilution (NCCLS M100-S14), H. influenzae 1218 (susceptible). The settings on record: Haemophilus influenzae 1218. Put shortly:
as §1

For test [4], the system named is Streptococcus pneumoniae 1095. Particulars: Streptococcus pneumoniae 1095; microtiter broth dilution. Put shortly:
as §1

In test [5] the test system is Streptococcus pneumoniae 1175. Particulars: Streptococcus pneumoniae 1175; microtiter broth dilution. Put shortly: as §1

The text below walks through data of patent US7462600B2, “Macrolides” (Pfizer Inc, priority 2004, dated 2008).

Molecules are shown by their SMILES. Converted amounts (≈) assume the structure as drawn. Some results are limits rather than exact numbers.

For the compound `CCC1OC(=O)C(C)C(=O)C(C)C(OC2OC(C)CC(N(C)C)C2O)C(C)(OC)CC(C)C(=O)C(C)C2N(C3CN(C(C)c4ccnc5cccnc45)C3)C(=O)OC12C` (stereo not drawn) [Example 1.38, 3-descladinosyl-11,12-dideoxy-6-O-methyl-3-oxo-12,11-(oxycarbonyl-(1-(1S-(1,5-naphthyridin-4-yl)-ethyl)-azetidin-3-yl)-imino)erythromycin A], the “MIC S. pneumo. 1016” value in test [1] is below 0.06 mg/L. In addition, the “MIC S. pyogenes 1079” value in test [2] came out at 4 mg/L (≈ 4.85 µM). In addition, the “MIC H. influenzae 1218” value in test [3] was found to be 1 mg/L (≈ 1.21 µM). For the same compound, the “MIC S. pneumo. 1095” value in test [4] is below 0.06 mg/L. In test [5], the “MIC S. pneumo. 1175” value amounted to 0.25 mg/L (≈ 0.303 µM).
Regarding `CCC1OC(=O)C(C)C(=O)C(C)C(OC2OC(C)CC(N(C)C)C2O)C(C)(OC)CC(C)C(=O)C(C)C2N(C3CN(Cc4cc(OC)nc5ccccc45)C3)C(=O)OC12C` (stereo not drawn) [Example 1.39, (2-methoxyquinolin-4-yl)methyl], the “MIC S. pneumo. 1016” value in test [1] is below 0.06 mg/L. In addition, the “MIC S. pyogenes 1079” value in test [2] was found to be 16 mg/L (≈ 19.1 µM). In addition, the “MIC H. influenzae 1218” value in test [3] worked out at 1 mg/L (≈ 1.19 µM). Besides, the “MIC S. pneumo. 1095” value in test [4] is below 0.06 mg/L. The “MIC S. pneumo. 1175” value in test [5] is 0.25 mg/L (≈ 0.298 µM).
With `CCC1OC(=O)C(C)C(=O)C(C)C(OC2OC(C)CC(N(C)C)C2O)C(C)(OC)CC(C)C(=O)C(C)C2N(C3CN(Cc4cnn(-c5cccc(F)c5)c4)C3)C(=O)OC12C` (stereo not drawn) [Example 1.41, (1-[3-fluorophenyl]-pyrazol-4-yl)methyl], in test [1], the “MIC S. pneumo. 1016” value is below 0.06 mg/L. In test [2], the “MIC S. pyogenes 1079” value was above 64.00 mg/L. In addition, in test [3], the “MIC H. influenzae 1218” value was 0.12 mg/L (≈ 0.143 µM). The “MIC S. pneumo. 1095” value in test [4] is below 0.06 mg/L. Further, the “MIC S. pneumo. 1175” value in test [5] was below 0.06 mg/L.
As to `CCC1OC(=O)C(C)C(=O)C(C)C(OC2OC(C)CC(N(C)C)C2O)C(C)(OC)CC(C)C(=O)C(C)C2N(C3CN(Cc4c[nH]nc4-c4ccc(F)cc4)C3)C(=O)OC12C` (stereo not drawn) [Example 1.42, (1H-3-[4-fluorophenyl]-pyrazol-4-yl)methyl], the “MIC S. pneumo. 1016” value in test [1] was below 0.06 mg/L. The “MIC S. pyogenes 1079” value in test [2] was above 64.00 mg/L. In addition, the “MIC H. influenzae 1218” value in test [3] amounted to 2 mg/L (≈ 2.38 µM). Moreover, the “MIC S. pneumo. 1095” value in test [4] was below 0.06 mg/L. Moreover, the “MIC S. pneumo. 1175” value in test [5] was found to be 0.25 mg/L (≈ 0.297 µM).
Turning to `CCC1OC(=O)C(C)C(=O)C(C)C(OC2OC(C)CC(N(C)C)C2O)C(C)(OC)CC(C)C(=O)C(C)C2N(C3CN(Cc4cccc(-c5ccccn5)c4)C3)C(=O)OC12C` (stereo not drawn) [Example 1.43, 3-(pyridin-2-yl)-benzyl], in test [1], the “MIC S. pneumo. 1016” value is below 0.06 mg/L. Also, in test [2], the “MIC S. pyogenes 1079” value came out at 16 mg/L (≈ 19.2 µM). For the same compound, in test [3], the “MIC H. influenzae 1218” value stood at 2 mg/L (≈ 2.4 µM). For the same compound, the “MIC S. pneumo. 1095” value in test [4] is below 0.06 mg/L. In addition, the “MIC S. pneumo. 1175” value in test [5] is below 0.06 mg/L.
On to `CCc1noc(-c2cccc(CN3CC(N4C(=O)OC5(C)C(CC)OC(=O)C(C)C(=O)C(C)C(OC6OC(C)CC(N(C)C)C6O)C(C)(OC)CC(C)C(=O)C(C)C45)C3)c2)n1` (stereo not drawn) [Example 1.44, 3-(3-ethyl-[1,2,4]oxadiazol-5-yl)benzyl], for which, in test [1], the “MIC S. pneumo. 1016” value is below 0.06 mg/L. The “MIC S. pyogenes 1079” value in test [2] was above 64.00 mg/L. For the same compound, the “MIC H. influenzae 1218” value in test [3] is 16 mg/L (≈ 18.7 µM). In addition, the “MIC S. pneumo. 1095” value in test [4] is below 0.06 mg/L. For the same compound, the “MIC S. pneumo. 1175” value in test [5] amounted to 0.5 mg/L (≈ 0.585 µM).
With `CCC1OC(=O)C(C)C(=O)C(C)C(OC2OC(C)CC(N(C)C)C2O)C(C)(OC)CC(C)C(=O)C(C)C2N(C3CN(Cc4ccc(-n5cccn5)nc4)C3)C(=O)OC12C` (stereo not drawn) [Example 1.45], the “MIC S. pneumo. 1016” value in test [1] is below 0.06 mg/L. In test [2], the “MIC S. pyogenes 1079” value came out at 16 mg/L (≈ 19.4 µM). Besides, the “MIC H. influenzae 1218” value in test [3] worked out at 4 mg/L (≈ 4.85 µM). Moreover, in test [4], the “MIC S. pneumo. 1095” value is below 0.06 mg/L. For the same compound, in test [5], the “MIC S. pneumo. 1175” value amounted to 0.5 mg/L (≈ 0.606 µM).
For `CCC1OC(=O)C(C)C(=O)C(C)C(OC2OC(C)CC(N(C)C)C2O)C(C)(OC)CC(C)C(=O)C(C)C2N(C3CN(Cc4ccnc(-c5nc(C)no5)c4)C3)C(=O)OC12C` (stereo not drawn) [Example 1.46, (2-[3-methyl-(1,2,4)oxadiazol-5-yl]pyridin-4-yl)methyl], the “MIC S. pneumo. 1016” value in test [1] is below 0.06 mg/L. For the same compound, in test [2], the “MIC S. pyogenes 1079” value is above 64.00 mg/L. Further, the “MIC H. influenzae 1218” value in test [3] stood at 8 mg/L (≈ 9.51 µM). Moreover, the “MIC S. pneumo. 1095” value in test [4] was below 0.06 mg/L. For the same compound, in test [5], the “MIC S. pneumo. 1175” value came to 0.25 mg/L (≈ 0.297 µM).
Consider `CCC1OC(=O)C(C)C(=O)C(C)C(OC2OC(C)CC(N(C)C)C2O)C(C)(OC)CC(C)C(=O)C(C)C2N(C3CN(Cc4cccc(-c5cnco5)c4)C3)C(=O)OC12C` (stereo not drawn) [Example 1.47, 3-(oxazol-5-yl)benzyl], for which, in test [1], the “MIC S. pneumo. 1016” value was below 0.06 mg/L. In addition, the “MIC S. pyogenes 1079” value in test [2] is 64 mg/L (≈ 77.6 µM). For the same compound, the “MIC H. influenzae 1218” value in test [3] came out at 0.25 mg/L (≈ 0.303 µM). Besides, the “MIC S. pneumo. 1095” value in test [4] is below 0.06 mg/L. In addition, in test [5], the “MIC S. pneumo. 1175” value was below 0.06 mg/L.
Turning to `CC[C@H]1OC(=O)[C@H](C)C(=O)[C@H](C)[C@@H](O[C@@H]2O[C@H](C)C[C@H](N(C)C)[C@H]2O)[C@](C)(OC)C[C@@H](C)C(=O)[C@H](C)[C@H]2N(C3CN(C(C)c4ccnc5ccccc45)C3)C(=O)O[C@]12C` (stereo partly drawn) [Example 1.62, 3-descladinosyl-11,12-dideoxy-6-O-methyl-3-oxo-12,11-(oxycarbonyl-(1-(1-(quinolin-4-yl)-ethyl)-azetidin-3-yl)-imino)-erythromycin A], in test [1], the “MIC S. pneumo. 1016” value was below 0.06 mg/L. The “MIC S. pyogenes 1079” value in test [2] came to 2 mg/L (≈ 2.43 µM). Besides, the “MIC H. influenzae 1218” value in test [3] is 0.5 mg/L (≈ 0.608 µM). Also, in test [4], the “MIC S. pneumo. 1095” value is below 0.06 mg/L. The “MIC S. pneumo. 1175” value in test [5] was below 0.06 mg/L.
In the case of `CC[C@H]1OC(=O)[C@H](C)C(=O)[C@H](C)[C@@H](O[C@@H]2O[C@H](C)C[C@H](N(C)C)[C@H]2O)[C@](C)(OC)C[C@@H](C)C(=O)[C@H](C)[C@H]2N(C3CN(C(C)c4ccnc5ccccc45)C3)C(=O)O[C@]12C` (stereo partly drawn) [Example 1.63, 3-descladinosyl-11,12-dideoxy-6-O-methyl-3-oxo-12,11-(oxycarbonyl-(1-(1-(quinolin-4-yl)-ethyl)-azetidin-3-yl)-imino)-erythromycin A], the “MIC S. pneumo. 1016” value in test [1] is below 0.06 mg/L. Besides, in test [2], the “MIC S. pyogenes 1079” value was 2 mg/L (≈ 2.43 µM). The “MIC H. influenzae 1218” value in test [3] stood at 1 mg/L (≈ 1.22 µM). Moreover, in test [4], the “MIC S. pneumo. 1095” value is below 0.06 mg/L. The “MIC S. pneumo. 1175” value in test [5] worked out at 0.12 mg/L (≈ 0.146 µM).
For `CCCC(c1ccnc2ccccc12)N1CC(N2C(=O)OC3(C)C(CC)OC(=O)C(C)C(=O)C(C)C(OC4OC(C)CC(N(C)C)C4O)C(C)(OC)CC(C)C(=O)C(C)C23)C1` (stereo not drawn) [Example 1.64, 3-descladinosyl-11,12-dideoxy-6-O-methyl-3-oxo-12,11-(oxycarbonyl-(1-(1-(quinolin4-yl)-butyl)-azetidin-3-yl)-imino)-erythromycin A], in test [1], the “MIC S. pneumo. 1016” value was below 0.06 mg/L. Moreover, the “MIC S. pyogenes 1079” value in test [2] is 1 mg/L (≈ 1.17 µM). The “MIC H. influenzae 1218” value in test [3] amounted to 1 mg/L (≈ 1.17 µM). Moreover, the “MIC S. pneumo. 1095” value in test [4] was below 0.06 mg/L. In addition, in test [5], the “MIC S. pneumo. 1175” value is below 0.06 mg/L.
